1 compound from PMC8237267 (Journal of Medicinal Chemistry, 2021) can be followed below.

pIC50: −log10 of the molar value. “Also recorded” adds a separate entry of the source.

The pIC50 is −log10 of the IC50, conventionally taken in molar units.

The target of one series is T1, HDAC4 (Homo sapiens, UniProt P56524).
T1 construct: The full-length human HDACs were recombinantly expressed and purified from SF9 insect cells; host or cells: SF9 insect cells
Description: HDAC EMSA activity assay (Nanosyn). It is filed as biochemical. (In EMSA bound probe runs differently from free probe, usually more slowly.)

Series [1] can be described thus: Glutathione stability / reactivity assay. It is filed as in vitro ADME. The conditions noted are these: GSH adduct formation by LC/MS/MS; KT-531 up to 24 h. As to the method: Although covalent modification of HDAC6 was not observed (Figure S2), the PFBS group is susceptible to nucleophilic aromatic substitution by biological nucleophiles. A previously described high-throughput in vitro glutathione-reactivity assay was conducted, where compounds were incubated in the presence of glutathione (GSH) and the formation of a GSH-compound adduct was monitored over time via LC/MS/MS.[50]
Compound was added to PBS and 5 mM GSH to reach a final concentration of 5 μM. […] Samples were vortexed and centrifuged for 45 min at 3220g. Aliquots were diluted by ultrapure water, and used for LC/MS/MS analysis. Peak area ratios were determined and percent compounds remaining was calculated by the following equation: [drawing 1] where peak area ratio (t min) is the peak area ratio of control and test compounds at t min; peak area ratio0min is the peak area ratio of control and test compounds at the zero time point. In vitro half-life (t1/2) = −(0.693/k).

The subject of another series is MV4-11 cells. Description: FACS apoptosis detection assay (Annexin V/PI). Format: cell-based. The conditions noted are these: MV4-11, 18 h, listed as KT-531. As to the method: MV4-11 cells were prepared, dosed, and washed with cold 1× PBS. The resulting cell pellets were resuspended in 1× Binding Buffer (1 × 10^6 cell/mL) from the FITC Annexin V Apoptosis Detection Kit I (BD Pharmingen). Subsequently, the dyes annexin V (5 μL) and propidium iodide (PI, 5 μL) were added to 2.5 × 10^5 cells (250 μL). The suspension was thoroughly mixed and incubated in the dark for 15 min. Following the addition of 250 μL of 1× binding buffer, the cells were analyzed by flow cytometry within 1 h using the Cytoflex S system (Beckman Coulter).

The test system of series [2] is primary T-PLL patient samples. Description: Ex vivo drug sensitivity (DSS) in primary T-PLL patient samples. Format: cell-based, human. The conditions noted are these: p = 0.0007, Wilcoxon test. The source says: (§1) Primary T-PLL cells were isolated from peripheral blood (PB) of 10 T-PLL patients. All patients were diagnosed according to WHO criteria based on clinical features, immunophenotyping (flow cytometry and histochemisty; including TCL1 expression), and FISH/karyotyping.[71],[72] Samples were obtained from patients under IRB-approved protocols following written informed consent according to the Declaration of Helsinki. Collection and use of patient material have been approved for research purpose by the ethics committee of the University Hospital of Cologne (EudraCT-Nr.: #2008-001421-34 and AZ11-319) and Helsinki (303/13/03/01/2011).
(§2) PB mononuclear cells (PBMCs) of T-PLL samples were obtained by density gradient centrifugation (Histopaque; Sigma-Aldrich). All drug screening in primary T-PLL patient samples were conducted as previously described.[34],[73]

In series [3] the test system is primary T-PLL patient samples. Description: Drug combination synergy in primary T-PLL patient samples. It is filed as cell-based, human.
From the text: as §1, §2

The target in the next series is T2, HDAC6 (Homo sapiens, UniProt Q9UBN7).
T2 sequence (Q9UBN7 1-1215): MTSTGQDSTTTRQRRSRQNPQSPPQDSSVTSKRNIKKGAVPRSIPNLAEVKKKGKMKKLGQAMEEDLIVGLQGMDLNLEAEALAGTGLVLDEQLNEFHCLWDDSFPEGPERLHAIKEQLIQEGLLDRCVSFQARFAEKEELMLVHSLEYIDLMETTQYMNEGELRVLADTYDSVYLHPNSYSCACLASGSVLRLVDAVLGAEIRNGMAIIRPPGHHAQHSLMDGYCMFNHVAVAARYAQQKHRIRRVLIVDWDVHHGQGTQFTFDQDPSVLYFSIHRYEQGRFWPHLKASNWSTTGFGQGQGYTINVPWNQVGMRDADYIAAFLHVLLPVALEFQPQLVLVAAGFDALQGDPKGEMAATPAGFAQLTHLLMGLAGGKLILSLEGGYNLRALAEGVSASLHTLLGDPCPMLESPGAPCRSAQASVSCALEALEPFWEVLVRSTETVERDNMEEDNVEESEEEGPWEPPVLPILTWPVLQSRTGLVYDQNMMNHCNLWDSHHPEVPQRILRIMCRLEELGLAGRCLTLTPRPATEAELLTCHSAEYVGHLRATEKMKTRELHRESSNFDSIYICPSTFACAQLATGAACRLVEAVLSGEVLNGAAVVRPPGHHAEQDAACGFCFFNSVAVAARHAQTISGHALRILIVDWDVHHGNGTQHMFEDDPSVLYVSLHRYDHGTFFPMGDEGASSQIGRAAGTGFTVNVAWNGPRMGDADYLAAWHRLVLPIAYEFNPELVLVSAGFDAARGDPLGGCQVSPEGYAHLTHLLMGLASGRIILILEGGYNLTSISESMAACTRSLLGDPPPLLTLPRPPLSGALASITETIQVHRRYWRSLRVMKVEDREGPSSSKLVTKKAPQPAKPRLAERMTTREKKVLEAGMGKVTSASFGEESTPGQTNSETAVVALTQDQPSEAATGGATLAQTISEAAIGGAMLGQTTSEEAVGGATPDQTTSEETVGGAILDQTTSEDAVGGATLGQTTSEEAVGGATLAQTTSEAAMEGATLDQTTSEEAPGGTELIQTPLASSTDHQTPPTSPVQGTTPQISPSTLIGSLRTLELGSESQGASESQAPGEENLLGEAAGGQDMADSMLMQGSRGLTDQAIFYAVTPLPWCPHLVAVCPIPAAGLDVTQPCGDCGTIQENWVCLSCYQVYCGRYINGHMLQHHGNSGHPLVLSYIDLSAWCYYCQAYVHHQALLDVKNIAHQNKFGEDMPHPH
As to the kind of experiment: HDAC EMSA activity assay (Nanosyn). It is filed as biochemical. More on the design: The full-length human HDACs were recombinantly expressed and purified from SF9 insect cells; host or cells: SF9 insect cells. The conditions noted are these: EMSA (Nanosyn); read-out: IC50 HDAC6.

T1 sequence (P56524 whole entry): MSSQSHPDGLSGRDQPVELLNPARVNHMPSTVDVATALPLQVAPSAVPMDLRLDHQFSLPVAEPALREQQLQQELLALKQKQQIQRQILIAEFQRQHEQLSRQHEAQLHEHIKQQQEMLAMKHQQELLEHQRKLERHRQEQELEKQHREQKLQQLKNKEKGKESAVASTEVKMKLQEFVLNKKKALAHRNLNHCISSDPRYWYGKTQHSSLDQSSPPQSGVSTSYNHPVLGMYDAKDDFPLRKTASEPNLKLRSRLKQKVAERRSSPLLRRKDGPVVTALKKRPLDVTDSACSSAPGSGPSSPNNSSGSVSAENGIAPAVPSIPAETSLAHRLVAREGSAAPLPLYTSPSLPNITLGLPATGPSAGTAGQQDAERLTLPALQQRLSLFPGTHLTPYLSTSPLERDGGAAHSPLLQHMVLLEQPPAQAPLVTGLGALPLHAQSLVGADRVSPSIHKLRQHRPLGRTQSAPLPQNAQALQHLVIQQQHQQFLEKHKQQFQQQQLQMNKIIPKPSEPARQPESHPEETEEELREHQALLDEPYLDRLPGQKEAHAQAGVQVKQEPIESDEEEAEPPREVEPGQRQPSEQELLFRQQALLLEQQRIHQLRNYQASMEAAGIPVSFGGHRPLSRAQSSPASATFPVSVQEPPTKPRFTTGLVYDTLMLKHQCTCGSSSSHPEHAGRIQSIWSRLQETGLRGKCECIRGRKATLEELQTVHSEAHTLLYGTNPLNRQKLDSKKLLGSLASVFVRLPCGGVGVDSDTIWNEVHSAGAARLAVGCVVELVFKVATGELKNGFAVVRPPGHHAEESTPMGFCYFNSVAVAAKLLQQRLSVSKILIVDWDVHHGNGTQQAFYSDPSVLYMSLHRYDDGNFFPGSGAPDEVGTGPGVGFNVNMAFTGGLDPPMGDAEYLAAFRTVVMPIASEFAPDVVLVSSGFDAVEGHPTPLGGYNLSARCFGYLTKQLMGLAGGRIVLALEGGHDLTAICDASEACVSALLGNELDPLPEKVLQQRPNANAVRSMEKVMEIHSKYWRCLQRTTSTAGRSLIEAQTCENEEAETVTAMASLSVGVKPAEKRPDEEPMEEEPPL

`O=C(NO)c1ccc(CN(C2CC2)S(=O)(=O)c2cc(F)c(F)c(F)c2F)cc1` [Compound 14, 4-(((N-Cyclopropyl-2,3,4,5-tetrafluorophenyl)sulfonamido)methyl)-N-hydroxybenzamide]: the pIC50 was under 6.00 at HDAC4 and 8.07 on HDAC6. Further, in series [1], the “reactivity with glutathione” value is reported as “no discernible reactivity with GSH; also recorded: no discernible SNAr reaction with GSH”. For the same compound, in the series with MV4-11 cells (0.5 μM), the “Early Apoptosis” value was 15%. Also, the “Late Apoptosis” value in the series on MV4-11 cells (1 μM) is recorded as 22%. Further, in the series with MV4-11 cells (2 μM), the “Healthy (nonapoptotic)” value is on record as 8%. In addition, the “drug response (DSS) versus vorinostat (SAHA)” value in series [2] is reported as “more potent drug response”. In series [3], the “combination with idasanutlin, bendamustine and venetoclax” value is reported as “All combinations revealed synergistic relationships in patient samples”.
